Data taken from patent US9220723B2, “Cancer therapy” (BRANDEIS UNIVERSITY, priority 2010, dated 2015).

Key:
[1] = tested on: NRASD12 expressing NIH3T3 cells; experiment: Immunofluorescence localization of NRASD12 after FASN inhibitor treatment; format: cell-based; details: 1 uM, 3 hrs post-treatment, anti-myc-tag immunofluorescence
Protocol: Localization of myc-tagged NRASD12 in MSCV-GFP-ires-2xmycNRASD12 infected NIH3T3 cells 3 hrs post-treatment with 1 uM cerulenin or 1 uM C75. NRASD12 were visualized by confocal microscope after probing with anti-myc-tag (9E10) antibody overnight at 4° C. and AlexaFluor-conjugated secondary antibody (red).
As a proof of principle studies of the effect of FASN inhibitors on NRAS palmitoylation/localization, we examined the effect of cerulenin and C75 on NRASD12 expressing NIH3T3 cells.

[2] = caused by highly reactive epoxy group; cited from earlier work
murine DHHC9 mRNA = experiment: Real-time RT-PCR of DHHC9 mRNA after siRNA transfection; format: cell-based; details: NIH3T3 cells, compared to scrambled siRNA
Protocol: (§1) (A) Relative DHHC9 (SEQ ID NO: 10) mRNA levels in NIH3T3 cells transfected by either DHHC9 (SEQ ID NO: 10) siRNA or control siRNA were determined by real-time RT-PCR. (B) GFP-NRASD12 expressing NIH3T3 cells transfected by either DHHC9 (SEQ ID NO: 10) siRNA or control siRNA were visualized by confocal microscope. Original magnification was 630×.
(§2) To determine the role of DHHC9 (SEQ ID NO: 10) in NRAS biology, we first examined the effect of DHHC9 (SEQ ID NO: 10) downregulation on cellular localization of oncogenic NRAS (NRASD12). RNA interference (RNAi) is a powerful tool for gene function studies and holds promise for the development of new molecular medicines. RNAi usually downregulate but often not abolish the target mRNAs, which mimic therapies more than gene-knockout. In addition, since DHHC9 (SEQ ID NO: 10) may have substrates other than RAS, knocking out the DHHC9 (SEQ ID NO: 10) gene might be toxic to cells. For these reasons we tested several small interference RNA (siRNA) specific to murine DHHC9 (SEQ ID NO: 10) for their ability to downregulate the DHHC9 (SEQ ID NO: 10) mRNA. […] Still further, the present invention provides systems for identifying cancer patients likely to respond to therapy that includes administration of one or more palmitoyl-acyl transferase inhibitors.

[3] = tested on: NIH3T3 cells expressing the GFP-NRASD12 fusion protein; experiment: Confocal localization of GFP-NRASD12 after DHHC9 siRNA transfection; format: cell-based; details: confocal microscopy
Protocol: as §1, §2

[4] = mouse, in vivo; cited from earlier work
3T3-GFP-NRASD12 cells = experiment: Confocal localization of GFP-NRASD12 after FASN miRNA transduction; format: cell-based; details: confocal microscopy
Excerpt: (§3) Fixed and permeablized cells were stained with an anti-BIP antibody, followed by an alexafluor 635-conjugated secondary antibody, and visualized on a Leica TCS SP2 Spectral Confocal Microscope. Original magnification was 630×.
(§4) We then examined the effect of knocking down FASN expression on RAS localization by the RNA interference (RNAi) approach. RNAi is endogenously mediated by microRNA (miRNA) ^30. miRNAs are generated from primary transcripts (pri-miRNAs) and processed into pre-miRNA and eventually mature miRNA. Artificial miRNAs are natural pri-miRNA in which the stem sequence of a miRNA has been substituted with a sequence targeting the gene of interest. In target cells, artificial miRNA undergoes the same processing steps of the parental pri-miRNA. A FASN specific small hairpin (sh) RNA (Open-Biosystems) was cloned into a MSCV-based retroviral shRNAmir (pSM2; Open-Biosystems) vector to generate an artificial miRNA for FASN (the cloning oligo for the FASN shRNA: 5′ TGCTGTTGACAGTGAGCGCCGCTTCTTAGAGATTGGCAAATAGTGAAGCCACAGATGTATTTGCCAATCTCTAAGAAGCGATGCCTACTGCCTCGGA 3′ (SEQ ID NO: 35)). The miRNA is under the control a U6 promoter and the vector includes a puromycin resistance gene under the control of phosphoglycerate kinase (PGK) eukaryotic promoter ^31. […]

3T3-NRASD12 cells = experiment: Cell morphology and foci (sphere) formation, 3T3-NRASD12; format: cell-based; details: 3T3-NRASD12 cells cultured for 6 days
Protocol: (§5) FIG. 16 illustrates the morphology of cultured NIH3T3 cells stably expressing the proteins and miRNAs indicated. Equal numbers (5×10^5) of cells were plated onto 100-mm plates after puromycin selection and were cultured for 6 days before representative pictures were taken (original magnification 100×)
(§6) Both 3T3-NRASD12 ^28 and 3T3-KRAS4BD12 form sphere-like foci in culture, while 3T3-MiG cells grow as normal NIH3T3 cells (FIG. 16). […] We plated equal cell numbers of scrambled or FASN miRNA-transduced, puromycin-selected 3T3-NRASD12 or 3T3-KRASD12 cell lines cultured for 6 days and observed cell morphology and foci formation (FIG. 16). […] However, these cells had somewhat altered morphology, similar to those observed in 3T3-NRASD12^C181S cells.

FASN = experiment: Western blot of FASN expression after FASN miRNA transduction; format: cell-based; details: NIH3T3 cell lines, puromycin selected (data not shown)
Excerpt: as §4, with “^31. A scrambled shRNA (the cloning oligo: 5′ TGCTGTTGACAGTGAGCGCTTCCTCTCTTTCTCTCCCTTTA GTGAAGCCACAGATGTACAAGGGAGAGAAAGAGAGGAAGGATGCCTACTGCCTCGGA 3′ (SEQ ID NO: 36)) was similarly cloned into pSM2 as a control.” for “^31.”

[5] = tested on: NIH3T3 cells expressing GFP-KRAS4BD12; experiment: Confocal localization of GFP-KRAS4BD12 after FASN miRNA transduction; format: cell-based; details: confocal microscopy
Excerpt: as §3, §4

3T3-KRASD12 cells = experiment: Cell morphology and foci (sphere) formation, 3T3-KRASD12; format: cell-based; details: 3T3-KRASD12 cells cultured for 6 days
Protocol: as §5, §6

C/C=C/C/C=C/CCC(=O)[C@H]1O[C@H]1C(N)=O [cerulenin, Cerulenin]
localization of NRASD12 [1]: mislocalized to internal membranes
stability [2]: innate instability

DHHC9 siRNA: siRNA specific to murine DHHC9; sense SEQ ID NO: 37, antisense SEQ ID NO: 38 (sense GGAAGAAGAACUAUGUAUUAUAUGT; antisense ACAUAUAAUACAUAGUUCUUCUUCCCU; chemistry not given here)
levels of DHHC9 mRNA (murine DHHC9 mRNA): dramatically reduced
localization of GFP-NRASD12 [3]: mislocalization of GFP-NRASD12 to internal membranes

C=C1C(=O)OC(CCCCCCCC)C1C(=O)O (centres unmarked) [C75]
effects of treatment on metabolism, weight and feeding [4]: increased metabolism, rapid and significant weight loss, and fasting
localization of NRASD12 [1]: mislocalized to internal membranes

B1: FASN miRNA: FASN specific small hairpin RNA (Open-Biosystems) cloned into pSM2 retroviral shRNAmir vector; cloning oligo SEQ ID NO: 35 (nucleic acid)
DNA: TGCTGTTGACAGTGAGCGCCGCTTCTTAGAGATTGGCAAATAGTGAAGCCACAGATGTATTTGCCAATCTCTAAGAAGCGATGCCTACTGCCTCGGA
localization of GFP-NRAS (3T3-GFP-NRASD12 cells): mislocalized to endomembranes
sphere (foci) formation (3T3-NRASD12 cells): no longer formed spheres
FASN expression (FASN): largely abolished
localization of GFP-KRAS4BD12 [5]: localized to both the plasma membrane and internal membranes
sphere (foci) formation (3T3-KRASD12 cells): formed spheres
